According to patent US20260101893A1, “FUNGICIDAL COMPOSITIONS” (SYNGENTA CROP PROTECTION AG, priority 2022, published 2026):

Tests used:
Format in all cases: cell-based
[1] = tested on: Glomerella lagenarium (Colletotrichum lagenarium); assay: Fungicidal activity against Glomerella lagenarium (Colletotrichum lagenarium) liquid culture/cucumber/preventative (Anthracnose)
Experimental: (§1) Fungicidal activity against Glomerella lagenarium (Colletotrichum lagenarium) liquid culture/cucumber/preventative (Anthracnose) Conidia of the fungus from cryogenic storage were directly mixed into nutrient broth (PDB potato dextrose broth). A DMSO solution of the test compounds was placed into a microtiter plate (96-well format) and the nutrient broth containing the fungal spores was added to it. The test plates were incubated at 24° C. and after 72 hours the fungal growth was assessed visually and compared to the growth in untreated wells. The scores were recorded as % control compared to the untreated wells. The action to be expected E for a given active ingredient combination was calculated using the COLBY formula as follows: • ppm=milligrams of active ingredient (=a.i.) per liter of spray mixture • X=% action by active ingredient (A) using p ppm of active ingredient • Y=% action by active ingredients (B+C) using q ppm of active ingredient. According to COLBY, the expected (additive) action of active ingredients (A)+(B+C) using p+q ppm of active ingredient is: [formula]

[2] = tested on: Zymoseptoria tritici (Septoria tritici); assay: Fungicidal activity against Zymoseptoria tritici (Septoria tritici) (leaf blotch), liquid culture in PDB, 96-well microtiter plate
Experimental: as §1, with “Zymoseptoria tritici (Septoria tritici) (leaf blotch)” for “Glomerella lagenarium (Colletotrichum lagenarium) liquid culture/cucumber/preventative (Anthracnose)”

[3] = tested on: Mycosphaerella arachidis Syn. Cercospora arachidicola; assay: Fungicidal activity against Mycosphaerella arachidis syn. Cercospora arachidicola (brown leaf spot), liquid culture in PDB, 96-well microtiter plate
Experimental: as §1, with “Activity Against Mycosphaerella arachidis Syn. Cercospora arachidicola (Brown Leaf Spot)” for “activity against Glomerella lagenarium (Colletotrichum lagenarium) liquid culture/cucumber/preventative (Anthracnose)”, “5 days” for “72 hours”

Which results are given for `CO/C=C(\Oc1cc(C2CCCCC2)ccc1C)C(=O)OC` [Compound X.04, methyl (Z)-2-(5-cyclohexyl-2-methyl-phenoxy)-3-methoxy-prop-2-enoate]?
% control Score ([1]; X.04 0.02 ppm): 0%; % control Score ([1]; X.04 0.02 ppm alone): 0%; % control Score ([1]; X.04 0.02 ppm, Table B2): 0%; % control Score ([1]; X.04 0.07 ppm): 70%; % control Score ([1]; X.04 0.07 ppm alone): 70%; % control Score ([1]; X.04 0.07 ppm, Table B2): 70%; % control Score ([1]; X.04 0.2 ppm): 100%; % control Score ([1]; X.04 0.2 ppm alone): 100%; % control Score ([1]; X.04 0.2 ppm, Table B2): 100%; Colletotrichum lagenarium % control Score ([1]; ppm: X.04 0.02): 0%; Colletotrichum lagenarium % control Score ([1]; ppm: X.04 0.07): 70%; Colletotrichum lagenarium % control Score ([1]; ppm: X.04 0.2): 100%; % control Score ([2]; X.04 0.02 ppm): 0%; % control Score ([2]; X.04 0.02 ppm alone): 0%; % control Score ([2]; X.04 0.02 ppm, Table B2): 0%; % control Score ([2]; X.04 0.07 ppm): 0%; % control Score ([2]; X.04 0.07 ppm alone): 0%; % control Score ([2]; X.04 0.07 ppm, Table B2): 0%; % control Score ([2]; X.04 0.2 ppm): 0%; % control Score ([2]; X.04 0.2 ppm alone): 0%; % control Score ([2]; X.04 0.2 ppm, Table B2): 0%; Zymoseptoria tritici % control Score ([2]; ppm: X.04 0.02): 0%; Zymoseptoria tritici % control Score ([2]; ppm: X.04 0.07): 0%; Zymoseptoria tritici % control Score ([2]; ppm: X.04 0.2): 0%; % control Score ([3]; X.04 0.02 ppm): 70%; % control Score ([3]; X.04 0.02 ppm alone): 70%; % control Score ([3]; X.04 0.02 ppm, Table B2): 70%; % control Score ([3]; X.04 0.07 ppm): 70%; % control Score ([3]; X.04 0.07 ppm alone): 90%; % control Score ([3]; X.04 0.07 ppm, Table B2): 90%; % control Score ([3]; X.04 0.2 ppm): 70%; % control Score ([3]; X.04 0.2 ppm alone): 90%; % control Score ([3]; X.04 0.2 ppm, Table B2): 90%; Mycosphaerella arachidis % control Score ([3]; ppm: X.04 0.02): 70%; Mycosphaerella arachidis % control Score ([3]; ppm: X.04 0.07): 90%; Mycosphaerella arachidis % control Score ([3]; ppm: X.04 0.2): 90%
